Laboratory results: US8809395B2, “Methods for making valerenic acid derivatives and their use” (Valericon GmbH, priority 2009, dated 2014)

What was measured:
[1] = system: c57B1/6N mice; experiment: Seizure threshold by pentylenetetrazole (PTZ) tail-vein infusion; assay type: in vivo; conditions: for seizure threshold: intraperitoneally, 30 min prior to test
Protocol: Seizure threshold was determined by pentylenetetrazole (PTZ) tail-vein infusion at a rate of 100 μl/min ([…] PTZ in saline, pH 7.4) on freely moving animals. 30 min prior to test c57B1/6N mice were intraperitoneally injected with either saline (=control group), VA or VA derivatives at the indicated concentrations. […] Animals were immediately anaesthetized using increasing carbon dioxide concentrations and killed by cervical displacement. The seizure threshold dose was calculated from the infused volume in relation to body weight. Results from tail-vein infusion were verified by intraperitoneal injection of a fixed dose of 30 mg PTZ/kg body weight. Animals were observed and video-tracked for 20 min after treatment.

[2] = biological target: T1, GABAA channels composed of α1β3 subunits (Rattus norvegicus, UniProt P62813+P63079); experiment: Modulation of IGABA, two-microelectrode voltage-clamp on recombinant GABAA receptors expressed in Xenopus laevis oocytes; assay type: cell-based; conditions: for EC50 / Hill-Coefficient (nH): GABA EC3-5; for Emax: GABA EC3-5, read-out: Maximum stimulation of IGABA (EC3-5)
T1 construct: expressed in transfected cells; host or cells: Xenopus laevis oocytes injected with cRNA transcribed from cDNA in pCMV vector
Protocol: Preparation of stage V-VI oocytes from Xenopus laevis and synthesis of capped off run-off poly(A^+) cRNA transcripts from linearized cDNA templates (pCMV vector) were performed as described (Khom et al. 2006). Briefly, female Xenopus laevis (NASCO, USA) were anaesthetised by exposing them for 15 minutes to a 0.2% solution of MS-222 (methane sulfonate salt of 3-aminobenzoic acid ethyl ester; Sandoz) before surgically removing parts of the ovaries. Follicle membranes from isolated oocytes were enzymatically digested with 2 mg/ml collagenase (Type 1A, Sigma). One day after isolation, the oocytes were injected with about 10-50 nl of DEPC-treated water (diethyl pyrocarbonate, Sigma, Germany) containing the different cRNAs at a concentration of approximately 300-3000 pg/nl/subunit. The amount of cRNA was determined by means of a Nanoprop ND-1000 (Kisker-biotech, Steinfurt, Germany).
cRNAs were mixed in a ratio of 1:1 for the expression of α1β3 receptors. Oocytes were stored at 18° C. in ND96 solution (Methfessel et al., 1986). Electrophysiological experiments were done using the two-microelectrode voltage-clamp method at a holding potential of −70 mV making use of a TURBO TEC 01C amplifier (npi electronic, Tamm, Germany) and an Axon Digidata 1322A interface (Molecular Devices, Sunnyvale, Calif.). Data acquisition was carried out using pCLAMP v.9.2. The bath solution contained 90 mM NaCl, 1 mM KCl, 1 mM MgCl2.6H2O, 1 mM CaCl2 and 5 mM HEPES (pH 7.4). Microelectrodes were filled with 2M KCl and had resistances between 1 and 3 MΩ (Khom et al., 2007).
GABA and valerenic acid derivatives, respectively, were applied by means of fast perfusion system (see Baburin et al. 2006 for details; Khom et al. 2006). Drug or control solutions were applied by means of a TECAN Miniprep 60 permitting automation of the experiments. To elicit IGABA the chamber was perfused with 120 μl of GABA-containing solution at a rate of between 300 and 1000 μl/s. The IGABA rise time was in the range of between 100 and 250 ms (see Khom et al. 2006). Care was taken to account for possible slow recovery from increasing levels of desensitization in the presence of high GABA, valerenic acid and derivatives concentrations. Oocytes with maximal current amplitudes >3 μA were discarded to exclude voltage-clamp errors (Khom et al., 2006; Baburin et al., 2006; Khom et al., 2007).
Stimulation of chloride currents by modulators of the GABAA receptor was measured at a GABA concentration eliciting between 3% and 5% of the maximal current amplitude (EC3-5). The EC3-5 was determined at the beginning of each experiment. Enhancement of the chloride current was defined as (I(GABA+Comp)/IGABA)−1, where I(GABA+Comp) is the current response in the presence of a given compound (valerenic acid or derivative) and IGABA is the control GABA current. To measure the sensitivity of the GABAA receptor for a given compound, the compound was applied for an equilibration period of 1 minute before applying GABA (EC3-5). Concentration-response curves were generated and the data were fitted by non-linear regression analysis using Origin software (OriginLab Corporation, USA). Data were fitted to the equation:
[formula] where nH is the Hill coefficient. Each data point represents the mean±S.E. from at least 4 oocytes and 2 oocyte batches. Statistical significance was calculated using the paired Student t-test with a confidence interval of p<0.05 (Khom et al., 2007). 4.2.2. Modulation of IGABA by VA Derivatives
Furthermore, the modulation of IGABA by VA derivatives was investigated at a GABA EC3-5 concentration in a system as outlined under 4.2.1, i.e. on recombinant GABAA receptors expressed in Xenopus laevis oocytes. Thus, modulation of IGABA by VA derivatives was studied on GABAA channels composed of α1β3 subunits.

[3] = system: mice (C57B1/6N); experiment: Mouse Elevated Plus Maze (EPM) test; assay type: in vivo; conditions: 3 mg/kg BW, injected 30 min prior to testing, assessed over 5 minutes
Protocol: Male mice (C57B1/6N) were obtained from Charles River Laboratories (Germany). For breeding and maintenance mice were housed in groups with free access to food and water.
Temperature was fixed to 23±1C and 60% humidity with a 12 h light-dark cycle (lights on 0700-1900 hours). Age and testing experience matched male mice at 3-8 months for all experiments. All procedures involving animals were approved by the Austrian Animal Experimentation Ethics Board in compliance with the European convention for the protection of vertebrate animals used for experimental and other scientific purposes ETS no.: 123.
Mice were transferred to the testing facility 24 h before commencement of experiments. Tests were performed between 0900 and 1300 hours. All tests were video monitored and evaluated by an experimenter blinded to the administered compound. […]
Behaviour was tested over 5 minutes on an elevated plus maze (1 meter above ground) consisting of two closed and two open arms, each 50 cm×5 cm in size. […] Analysis of open and closed arm entries and time on open arm was automatically recorded using Video-Mot 2 equipment and software (Wittmann et al., 2008). […]

T1 sequence (P62813 28-455): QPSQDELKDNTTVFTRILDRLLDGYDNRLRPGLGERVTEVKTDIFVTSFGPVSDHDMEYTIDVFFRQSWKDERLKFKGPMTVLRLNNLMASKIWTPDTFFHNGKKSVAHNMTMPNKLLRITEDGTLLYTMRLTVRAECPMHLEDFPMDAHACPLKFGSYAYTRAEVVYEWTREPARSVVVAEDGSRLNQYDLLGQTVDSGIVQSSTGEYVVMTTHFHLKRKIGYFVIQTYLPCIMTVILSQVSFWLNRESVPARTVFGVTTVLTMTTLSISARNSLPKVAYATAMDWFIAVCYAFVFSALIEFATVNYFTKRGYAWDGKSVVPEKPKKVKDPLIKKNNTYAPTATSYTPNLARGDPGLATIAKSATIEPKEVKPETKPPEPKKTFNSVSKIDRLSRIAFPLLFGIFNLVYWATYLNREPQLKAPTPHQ
T1 sequence (P63079 26-473): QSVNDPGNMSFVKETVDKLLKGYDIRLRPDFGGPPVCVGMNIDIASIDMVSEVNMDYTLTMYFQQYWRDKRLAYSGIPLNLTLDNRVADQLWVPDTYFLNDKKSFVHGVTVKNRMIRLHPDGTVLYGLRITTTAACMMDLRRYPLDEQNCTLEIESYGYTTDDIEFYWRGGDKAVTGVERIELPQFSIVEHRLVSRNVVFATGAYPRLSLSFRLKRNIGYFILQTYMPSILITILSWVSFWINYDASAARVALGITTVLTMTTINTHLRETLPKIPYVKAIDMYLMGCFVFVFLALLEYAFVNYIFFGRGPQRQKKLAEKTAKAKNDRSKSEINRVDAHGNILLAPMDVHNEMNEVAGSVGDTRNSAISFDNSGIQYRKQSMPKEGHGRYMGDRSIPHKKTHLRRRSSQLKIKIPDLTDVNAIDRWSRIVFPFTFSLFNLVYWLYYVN

Row | SMILES | EC50 [2] | Hill-Coefficient (nH) [2] | Emax [2] | anticonvulsant effects (in words) ([1]; 30 mg/kg bodyweight) | also measured
1 | CC1=C2[C@H](/C=C(\C)C(=O)O)CC[C@@H](C)[C@H]2CC1 [VA, (E)-3-[(4S,7R,7aR)-3,7-dimethyl-2,4,5,6,7,7a-hexahydro-1H-inden-4-yl]-2-methylprop-2-enoic acid, reference compound] |  |  |  |  | seizure threshold ([1]; 3 mg/kg bodyweight): 47.7±2.7 mg PTZ/kg; seizure threshold (in words) ([1]; concentrations ≧3 mg/kg bodyweight, vs. saline): significantly increased
2 | CCCCNC(=O)/C(C)=C/[C@@H]1CC[C@@H](C)[C@H]2CCC(C)=C12 [VA-BA, (E)-N-butyl-3-((4S,7R,7aR)-3,7-dimethyl-2,4,5,6,7,7a-hexahydro-1H-inden-4-yl)-2-methylacrylamide] | 18.8 ± 6.9 µM | 1.1 ± 0.2 | 569 ± 57% |  | 
3 | CCN(CC)C(=O)/C(C)=C/[C@@H]1CC[C@@H](C)[C@H]2CCC(C)=C12 [VA-DEA, (E)-3-((4S,7R,7aR)-3,7-dimethyl-2,4,5,6,7,7a-hexahydro-1H-inden-4-yl)-N,N-diethyl-2-methylacrylamide] | 23.7 ± 6.3 µM | 1.4 ± 0.1 | 901 ± 120% | significantly increased | 
4 | CC1=C2[C@H](/C=C(\C)C(=O)N(C)C)CC[C@@H](C)[C@H]2CC1 [VA-DMA, (E)-3-((4S,7R,7aR)-3,7-dimethyl-2,4,5,6,7,7a-hexahydro-1H-inden-4-yl)-N,N,2-trimethylacrylamide] | 28.4 ± 7.1 µM | 2.1 ± 0.5 |  |  | 
5 | CC1=C2[C@H](/C=C(\C)C(=O)NC(C)C)CC[C@@H](C)[C@H]2CC1 [VA-IPA, (E)-3-((4S,7R,7aR)-3,7-dimethyl-2,4,5,6,7,7a-hexahydro-1H-inden-4-yl)-N-isopropyl-2-methylacrylamide] | 22.5 ± 6 µM | 1.5 ± 0.3 | 506 ± 76% |  | 
6 | CC1=C2[C@H](/C=C(\C)C(=O)N3CCOCC3)CC[C@@H](C)[C@H]2CC1 [VA-MO, (E)-3-((4S,7R,7aR)-3,7-dimethyl-2,4,5,6,7,7a-hexahydro-1H-inden-4-yl)-2-methyl-1-morpholinoprop-2-en-1-one] | 64.2 ± 13.8 µM | 1.6 ± 0.2 |  |  | 

Second part, led by results:

Row | EC50 [2] | Hill-Coefficient (nH) [2] | Emax [2] | SMILES | anticonvulsant effects (in words) ([1]; 30 mg/kg bodyweight) | also measured
7 | 13.7 ± 2.3 µM | 1.6 ± 0.2 |  | CC1=C2[C@H](/C=C(\C)C(N)=O)CC[C@@H](C)[C@H]2CC1 [VA-A, (E)-3-((4S,7R,7aR)-3,7-dimethyl-2,4,5,6,7,7a-hexahydro-1H-inden-4-yl)-2-methylacrylamide] |  | anticonvulsant effect compared among tested substances ([1]; 3 mg/kg bodyweight): most pronounced; seizure threshold ([1]; 3 mg/kg bodyweight): 58.6±3.7 mg PTZ/kg; time spent in the open arms of the EPM, % of total time in the test [3]: 52.1±3.9%
8 | 23.4 ± 6.9 µM | 1.3 ± 0.3 |  | CCNC(=O)/C(C)=C/[C@@H]1CC[C@@H](C)[C@H]2CCC(C)=C12 [VA-EA] | significantly increased | 
9 | 26.3 ± 6.6 µM | 1.4 ± 0.1 |  | CNC(=O)/C(C)=C/[C@@H]1CC[C@@H](C)[C@H]2CCC(C)=C12 [VA-MA, (E)-3-((4S,7R,7aR)-3,7-dimethyl-2,4,5,6,7,7a-hexahydro-1H-inden-4-yl)-N,2-dimethylacrylamide] | significantly increased | anticonvulsant effect compared among tested substances ([1]; 30 mg/kg bodyweight): strongest anticonvulsant effect
10 | 54.6 ± 17 µM | 1.6 ± 0.3 |  | CC1=C2[C@H](/C=C(\C)C(=O)N3CCCCC3)CC[C@@H](C)[C@H]2CC1 [VA-PIP, (E)-3-((4S,7R,7aR)-3,7-dimethyl-2,4,5,6,7,7a-hexahydro-1H-inden-4-yl)-2-methyl-1-(piperidin-1-yl)prop-2-en-1-one] |  | 
